Experimental data from patent US9133217B2 (Salix Pharmaceuticals, Ltd, priority 2011, dated 2015).
“Also recorded” adds a separate entry of the source. Where two headings read alike, the source gives them in different places.

Tests used:
Assay type in all cases: physicochemical
[1] = Rifaximin drying experiments, resulting solid form by XRPD
Protocol: (§1) X-ray powder diffraction (XRPD) analyses were performed using an Inel XRG-3000 diffractometer equipped with a CPS (Curved Position Sensitive) detector with a […] of 120°. Real time data were collected using Cu—Kα radiation. The tube voltage and amperage were set to 40 kV and 30 mA, respectively. The monochromator slit was set at 1-5 mm by 160 μm. […] Samples were prepared for analysis by packing them into thin-walled glass capillaries. Each capillary was mounted onto a goniometer head that is motorized to permit spinning of the capillary during data acquisition. The samples were analyzed for 300 seconds. Instrument calibration was performed using a silicon reference standard.

[2] = Moisture sorption/desorption (dynamic vapor sorption, DVS); conditions: for weight gain from 5 to 95% RH / weight gain (adsorption) from 5 to 95% RH: sorption 5 to 95% RH; for hygroscopicity (in words): from moisture sorption/desorption; for Post-DVS XRPD (solid form after moisture sorption): specimen after DVS cycle 5-95-5% RH
Protocol: Automated vapor sorption (VS) data were collected on a VTI SGA-100 Vapor Sorption Analyzer. NaCl and PVP were used as calibration standards. Samples were not dried prior to analysis. Sorption and desorption data were collected over a range from 5 to 95% RH at 10% RH increments under a nitrogen purge. The equilibrium criterion used for analysis was less than 0.0100% weight change in 5 minutes with a maximum equilibration time of 3 hours. Data were not corrected for the initial moisture content of the samples.
Moisture sorption/desorption data were collected on a VTI SGA-100 Vapor Sorption Analyzer. Sorption and desorption data were collected over a range of 5% to 95% relative humidity (RH) at 10% RH intervals under a nitrogen purge. Samples were not dried prior to analysis. Equilibrium criteria used for analysis were less than 0.0100% weight change in 5 minutes, with a maximum equilibration time of 3 hours if the weight criterion was not met. Data were not corrected for the initial moisture content of the samples. NaCl and PVP were used as calibration standards.

[3] = Stressing under various relative humidities / temperature and vacuum, resulting solid form by XRPD
Protocol: The jar was sealed and stored at either ambient temperature or in an oven at elevated temperature.
as §1
Samples were also analyzed using a PANalytical X'Pert Pro diffractometer. The specimen was analyzed using Cu radiation produced using an Optix long fine-focus source. An elliptically graded multilayer mirror was used to focus the Cu K α X-rays of the source through the specimen and onto the detector. The specimen was sandwiched between 3-micron thick films, analyzed in transmission geometry, and rotated to optimize orientation statistics. A beam-stop and a helium purge were used to minimize the background generated by air scattering. Soller slits were used for the incident and diffracted beams to minimize axial divergence. Diffraction patterns were collected using a scanning position-sensitive detector (X'Celerator) located 240 mm from the specimen […] a silicon specimen (NIST standard reference material 640c) was analyzed to verify the position of the silicon 111 peak.

## CO[C@H]1/C=C/O[C@@]2(C)Oc3c(C)c(O)c4c(O)c(c5c(nc6cc(C)ccn65)c4c3C2=O)NC(=O)/C(C)=C\C=C\[C@H](C)[C@H](O)[C@@H](C)[C@@H](O)[C@@H](C)[C@H](OC(C)=O)[C@@H]1C [Form Eta, Rifaximin]
[1]; vac oven, 40° C., 1 day, listed as η
  XRPD Form after drying: η

## CO[C@H]1/C=C/O[C@@]2(C)Oc3c(C)c(O)c4c(O)c(c5c(nc6cc(C)ccn65)c4c3C2=O)NC(=O)/C(C)=C\C=C\[C@H](C)[C@H](O)[C@@H](C)[C@@H](O)[C@@H](C)[C@H](OC(C)=O)[C@@H]1C [Form Gamma, Rifaximin, reference compound]
[1]; vac oven / under vacuum, ambient, 1 day, listed as Form γ
  XRPD Form after drying: remained unchanged
[2]; DVS, desorption 95 to 5% RH, listed as Rifaximin Form Gamma
  weight loss from 95 to 5% RH: 11.7%
[2]; DVS, equilibration at 5% RH, listed as Rifaximin Form Gamma
  initial weight loss upon equilibration at 5% RH: 2.4%
[2]; DVS, listed as Rifaximin Form Gamma
  weight gain from 5 to 95% RH: 10.8%
[2]; listed as Rifaximin Form Gamma
  hygroscopicity (in words): hygroscopic

## CO[C@H]1/C=C/O[C@@]2(C)Oc3c(C)c(O)c4c(O)c(c5c(nc6cc(C)ccn65)c4c3C2=O)NC(=O)/C(C)=C\C=C\[C@H](C)[C@H](O)[C@@H](C)[C@@H](O)[C@@H](C)[C@H](OC(C)=O)[C@@H]1C [Form Mu, Rifaximin]
[3]; 59-62° C./Vacuum, ~24 hours
  XRPD result after stress: γ
[3]; 60° C./Vacuum, ~24 hours, listed as Form μ
  XRPD result after stress: irreversibly desolvates to Form Gamma; also recorded: irreversibly desolvates to Form γ
[3]; 60° C./Vacuum, ~24 hours, listed as Rifaximin Form μ
  XRPD result after stress: γ
[3]; 97% RH (RT), 16 days, listed as Form μ
  XRPD result after stress: converted to Form Beta
[3]; 97% RH (RT), 16 days, listed as Rifaximin Form μ
  XRPD result after stress: μ + β
[2]; DVS, desorption 95 to 5% RH, listed as rifaximin Form μ
  weight loss from 95 to 5% RH: 9.3%
[2]; DVS, equilibration at 5% RH, listed as rifaximin Form μ
  initial weight loss upon equilibration at 5% RH: 11.0%
[2]; DVS, listed as rifaximin Form μ
  weight gain from 5 to 95% RH: 9.5%
[2]; moisture balance, desorption
  % wt lost from 95%-5% RH: 9.3 % wt lost from 95%-5% RH
[2]; moisture balance, equilibration at 5% RH, signed change
  % wt change upon equilibration at 5% RH: −11.0 % wt change upon equilibration at 5% RH
[2]; moisture balance, sorption
  % wt gain from 5%-95% RH: 9.5 % wt gain from 5%-95% RH
[2]; listed as Rifaximin Form Mu
  Post-DVS XRPD (solid form after moisture sorption): Form γ
[2]; listed as rifaximin Form μ
  Post-DVS XRPD (solid form after moisture sorption): converted to Form Gamma

## CO[C@H]1/C=C/O[C@@]2(C)Oc3c(C)c(O)c4c(O)c(c5c(nc6cc(C)ccn65)c4c3C2=O)NC(=O)/C(C)=C\C=C\[C@H](C)[C@H](O)[C@@H](C)[C@@H](O)[C@@H](C)[C@H](OC(C)=O)[C@@H]1C [Form Omicron, Rifaximin]
[2]
  wt % change on equilibration at 5% RH: −15.0 wt % change on equilibration at 5% RH
[2]; DVS, equilibration at 5% RH, listed as Rifaximin Form Omicron
  initial weight loss at 5% RH upon equilibration: ~15 wt %
[2]; listed as Rifaximin Form Omicron
  Post-DVS XRPD (solid form after moisture sorption): Form Iota with a significant amount of disorder

## CO[C@H]1/C=C/O[C@@]2(C)Oc3c(C)c(O)c4c(O)c(c5c(nc6cc(C)ccn65)c4c3C2=O)NC(=O)/C(C)=C\C=C\[C@H](C)[C@H](O)[C@@H](C)[C@@H](O)[C@@H](C)[C@H](OC(C)=O)[C@@H]1C [Form Pi, Rifaximin]
[2]; DVS, desorption 95 to 5% RH
  weight lost from 95 to 5% RH: 11.3 wt % lost from 95 to 5% RH
[2]; DVS, desorption 95 to 5% RH, listed as Rifaximin Form Pi
  weight loss from 95 to 5% RH: 11.3%
[2]; DVS, equilibration at 5% RH
  initial weight loss at 5% RH upon equilibration: 1.3 wt %
[2]; DVS, equilibration at 5% RH, signed change
  wt % change on equilibration at 5% RH: −1.3 wt % change on equilibration at 5% RH
[2]; DVS, listed as Rifaximin Form Pi
  weight gain (adsorption) from 5 to 95% RH: 10.5 wt %
[2]; DVS, listed as Rifaximin Pi
  weight gain (adsorption) from 5 to 95% RH: 10.5 wt % gain from 5 to 95% RH
[2]; listed as Rifaximin Form Pi
  hygroscopicity (in words): reversibly hygroscopic
  Post-DVS XRPD (solid form after moisture sorption): Form Pi
[2]; listed as Rifaximin Pi
  Post-DVS XRPD (solid form after moisture sorption): Pi

## CO[C@H]1/C=C/O[C@@]2(C)Oc3c(C)c(O)c4c(O)c(c5c(nc6cc(C)ccn65)c4c3C2=O)NC(=O)/C(C)=C\C=C\[C@H](C)[C@H](O)[C@@H](C)[C@@H](O)[C@@H](C)[C@H](OC(C)=O)[C@@H]1C [Form Theta, Rifaximin, reference compound]
[3]; 75% RH (40° C.), 6 hrs
  form after exposure to humidity (XRPD): μ + η
[3]; 75% RH (RT), 6 hrs
  form after exposure to humidity (XRPD): convert at least partially to Form μ
[3]; 75% RH (RT), 6 hrs, listed as Rifaximin Form Theta
  form after exposure to humidity (XRPD): convert to Form μ
[3]; 75% RH (RT), 6 hrs, listed as θ
  form after exposure to humidity (XRPD): μ + ι

## CO[C@H]1/C=C/O[C@@]2(C)Oc3c(C)c(O)c4c(O)c(c5c(nc6cc(C)ccn65)c4c3C2=O)NC(=O)/C(C)=C\C=C\[C@H](C)[C@H](O)[C@@H](C)[C@@H](O)[C@@H](C)[C@H](OC(C)=O)[C@@H]1C [Form Xi, Rifaximin]
[2]; DVS, desorption 95 to 5% RH, listed as rifaximin Form Xi
  weight loss from 95 to 5% RH: 10.5%
[2]; DVS, equilibration at 5% RH, listed as rifaximin Form Xi
  initial weight loss upon equilibration at 5% RH: 7.2%
[2]; DVS, listed as rifaximin Form Xi
  weight gain from 5 to 95% RH: 7.9%
[2]; listed as rifaximin Form Xi
  Post-DVS XRPD (solid form after moisture sorption): became disordered

## CO[C@H]1/C=C/O[C@@]2(C)Oc3c(C)c(O)c4c(O)c(c5c(nc6cc(C)ccn65)c4c3C2=O)NC(=O)/C(C)=C\C=C\[C@H](C)[C@H](O)[C@@H](C)[C@@H](O)[C@@H](C)[C@H](OC(C)=O)[C@@H]1C [Form Zeta, Rifaximin]
[1]; air dry
  XRPD Form after drying: γ
[1]; open vial in hood
  XRPD Form after drying: γ
[1]; stored in refrigerator 3 weeks
  XRPD Form after storage: ζ
[1]; vac dry
  XRPD Form after drying: γ + η
[1]; vac oven / under vacuum, ambient, 1 day
  XRPD Form after drying: Form η
[1]; vac oven / under vacuum, ambient, 1 day, listed as ζ
  XRPD Form after drying: η
[1]; vac oven, 40° C., 1 day
  XRPD Form after drying: remained unchanged
[1]; vac oven, 45° C., 2 days
  XRPD Form after drying: η
[3]; 43% RH, 3 days, room temperature
  XRPD Form after stressing: conversion to Form γ
[3]; 43% RH, 3 days, room temperature, listed as Form ζ
  XRPD Form after stressing: conversion to Form γ
[3]; 43% RH, 3 days, room temperature, listed as ζ
  XRPD Form after stressing: γ
[3]; 51% RH (RT), ~20 min
  form after exposure to humidity (XRPD): converts to Form Mu
[3]; 51% RH (RT), ~20 min, listed as ζ
  form after exposure to humidity (XRPD): μ
[3]; 58% RH, 3 days, room temperature, listed as ζ
  XRPD Form after stressing: ζ
[3]; 75% RH, 3 days, room temperature, listed as ζ
  XRPD Form after stressing: ζ
[3]; 94% RH, 3 days, room temperature, listed as Form ζ
  XRPD Form after stressing: Form γ+γ−1
[3]; 94% RH, 3 days, room temperature, listed as ζ
  XRPD Form after stressing: β + ζ
[3]; stability chamber 75% RH @40° C., 1 day
  XRPD Form after stressing: ζ + Y

## CO[C@H]1/C=C/O[C@@]2(C)Oc3c(C)c(O)c4c(O)c(c5c(nc6cc(C)ccn65)c4c3C2=O)NC(=O)/C(C)=C\C=C\[C@H](C)[C@H](O)[C@@H](C)[C@@H](O)[C@@H](C)[C@H](OC(C)=O)[C@@H]1C [α dry, Rifaximin, reference compound]
[3]; 58% RH, 2 days, room temperature
  XRPD Form after stressing: β
[3]; 75% RH, 2 days, room temperature
  XRPD Form after stressing: β
[3]; 94% RH, 2 days, room temperature
  XRPD Form after stressing: β

## CO[C@H]1/C=C/O[C@@]2(C)Oc3c(C)c(O)c4c(O)c(c5c(nc6cc(C)ccn65)c4c3C2=O)NC(=O)/C(C)=C\C=C\[C@H](C)[C@H](O)[C@@H](C)[C@@H](O)[C@@H](C)[C@H](OC(C)=O)[C@@H]1C [α, Rifaximin, reference compound]
[3]; P205, 4 days, room temperature
  XRPD Form after stressing: α dry
